Measured values as given in PubChem BioAssay AID248 (DTP/NCI, 2004).
“And” between values parts separate entries of the source, which are not always exact repeats. Equal entries are not always repeated. Toxic doses and inconclusive results are not listed. Cut-off read from the data, not from the text of the source: active = T/C of 150% or more; inactive = T/C below 125%.

System: L1210 leukemia ip in BDF1 mice, survival T/C
Experiment: NCI In Vivo Anticancer Drug Screen. Data for tumor model L1210 Leukemia (intraperitoneal) in B6D2F1 (BDF1) mice
Settings: endpoint: mean survival time, higher = longer survival
Summary of the method: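 Antitumor effect is assessed in tumor-bearing animals. Survival in the compound arm is compared with a vehicle-dosed control arm and expressed as their quotient.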

[1] = dose: 100.0 mg/kg/injection, schedule: Q01DX009 (ip), vehicle: Klucel (hydroxypropylcellulose) (HPC)
[2] = dose: 100.0 mg/kg/injection, schedule: Q04DX003 (ip), vehicle: saline with Tween-80
[3] = dose: 200.0 mg/kg/injection, schedule: Q01DX009 (ip), vehicle: Klucel (hydroxypropylcellulose) (HPC)
[4] = dose: 200.0 mg/kg/injection, schedule: Q04DX003 (ip), vehicle: saline with Tween-80
[5] = dose: 400.0 mg/kg/injection, schedule: Q01DX009 (ip), vehicle: Klucel (hydroxypropylcellulose) (HPC)
[6] = dose: 400.0 mg/kg/injection, schedule: Q04DX003 (ip), vehicle: saline with Tween-80
[7] = dose: 100.0 mg/kg/injection, schedule: Q01DX001 (ip), vehicle: Klucel (hydroxypropylcellulose) (HPC)
[8] = dose: 100.0 mg/kg/injection, schedule: Q04DX003 (ip), vehicle: Klucel (hydroxypropylcellulose) (HPC)
[9] = dose: 200.0 mg/kg/injection, schedule: Q01DX001 (ip), vehicle: Klucel (hydroxypropylcellulose) (HPC)
[10] = dose: 200.0 mg/kg/injection, schedule: Q04DX003 (ip), vehicle: Klucel (hydroxypropylcellulose) (HPC)
[11] = dose: 400.0 mg/kg/injection, schedule: Q01DX001 (ip), vehicle: Klucel (hydroxypropylcellulose) (HPC)
[12] = dose: 400.0 mg/kg/injection, schedule: Q04DX003 (ip), vehicle: Klucel (hydroxypropylcellulose) (HPC)

Measured: T/C

CCC(NC(=O)CN)C(=O)O (centres undefined)
inactive: dose: 100.0 mg/kg/injection, schedule: Q01DX009 (ip), vehicle: saline 100 % of control and 107 % of control | dose: 100.0 mg/kg/injection, schedule: Q04DX002 (ip), vehicle: saline 97 % of control and 101 % of control and 91 % of control | dose: 100.0 mg/kg/injection, schedule: Q04DX003 (ip), vehicle: saline 93 % of control | dose: 200.0 mg/kg/injection, schedule: Q01DX009 (ip), vehicle: saline 102 % of control and 92 % of control | dose: 200.0 mg/kg/injection, schedule: Q04DX002 (ip), vehicle: saline 97 % of control and 105 % of control | dose: 200.0 mg/kg/injection, schedule: Q04DX003 (ip), vehicle: saline 94 % of control | dose: 400.0 mg/kg/injection, schedule: Q01DX009 (ip), vehicle: saline 102 % of control and 111 % of control | dose: 400.0 mg/kg/injection, schedule: Q04DX002 (ip), vehicle: saline 108 % of control and 100 % of control and 118 % of control | dose: 400.0 mg/kg/injection, schedule: Q04DX003 (ip), vehicle: saline 98 % of control

CCCCCCCCCCCCCCCCCOC(=O)CCCCCCCCCCCCC
inactive: [1] 91 % of control | [2] 90 % of control | [3] 96 % of control | [4] 88 % of control | [5] 98 % of control | [6] 92 % of control

O=C(C1=Cc2ccccc2OC1)N1CCN(c2ccccc2)CC1
inactive: dose: 100.0 mg/kg/injection, schedule: Q04DX003 (ip), vehicle: gum acacia 103 % of control | dose: 200.0 mg/kg/injection, schedule: Q04DX003 (ip), vehicle: gum acacia 95 % of control | dose: 400.0 mg/kg/injection, schedule: Q04DX003 (ip), vehicle: gum acacia 101 % of control

Oc1c(Br)cc(Br)cc1/C=N/N=C/c1cc(Br)cc(Br)c1O
inactive: [7] 90 % of control | [1] 98 % of control | [8] 90 % of control | [9] 90 % of control | [10] 97 % of control | [11] 90 % of control | [5] 88 % of control | [12] 94 % of control

FC(F)(F)c1nccc(=S)[nH]1
inactive: dose: 50.0 mg/kg/injection, schedule: Q01DX Z (ip), vehicle: methylcellulose (MC) 98 % of control | dose: 100.0 mg/kg/injection, schedule: Q01DX Z (ip), vehicle: methylcellulose (MC) 90 % of control

O=NN(CCCl)C(=O)Nc1cc(NC(=O)N(CCCl)N=O)cc(C(=O)O)c1
active: dose: 0.52 mg/kg/injection, schedule: Q01DX009 (ip), vehicle: saline 290 % of control | dose: 1.7 mg/kg/injection, schedule: Q01DX001 (ip), vehicle: saline 155 % of control | dose: 2.6 mg/kg/injection, schedule: Q01DX001 (ip), vehicle: saline with Tween-80 151 % of control | dose: 5.0 mg/kg/injection, schedule: Q01DX009 (ip), vehicle: saline 162 % of control | dose: 6.6 mg/kg/injection, schedule: Q04DX003 (ip), vehicle: saline 153 % of control | dose: 9.0 mg/kg/injection, schedule: Q01DX001 (ip), vehicle: saline 152 % of control | dose: 10.0 mg/kg/injection, schedule: Q01DX009 (ip), vehicle: Klucel (hydroxypropylcellulose) (HPC) 150 % of control and 160 % of control | dose: 10.0 mg/kg/injection, schedule: Q01DX009 (ip), vehicle: saline 212 % of control | dose: 12.0 mg/kg/injection, schedule: Q01DX001 (ip), vehicle: saline 150 % of control | dose: 13.0 mg/kg/injection, schedule: Q04DX003 (ip), vehicle: saline 155 % of control | dose: 15.0 mg/kg/injection, schedule: Q01DX009 (ip), vehicle: Klucel (hydroxypropylcellulose) (HPC) 150 % of control | dose: 17.0 mg/kg/injection, schedule: Q01DX001 (ip), vehicle: saline with Tween-80 196 % of control | dose: 20.0 mg/kg/injection, schedule: Q01DX009 (ip), vehicle: Klucel (hydroxypropylcellulose) (HPC) 195 % of control | dose: 20.0 mg/kg/injection, schedule: Q04DX003 (ip), vehicle: saline 161 % of control | dose: 26.0 mg/kg/injection, schedule: Q01DX001 (ip), vehicle: saline with Tween-80 155 % of control | dose: 26.0 mg/kg/injection, schedule: Q01DX001 (ip), vehicle: saline 152 % of control
inactive: dose: 0.22 mg/kg/injection, schedule: Q01DX009 (ip), vehicle: saline 110 % of control | dose: 0.34 mg/kg/injection, schedule: Q01DX009 (ip), vehicle: saline 117 % of control | dose: 0.62 mg/kg/injection, schedule: Q01DX001 (ip), vehicle: carboxymethylcellulose (CMC) 112 % of control | dose: 0.83 mg/kg/injection, schedule: Q04DX003 (ip), vehicle: saline 114 % of control | dose: 1.25 mg/kg/injection, schedule: Q01DX001 (ip), vehicle: carboxymethylcellulose (CMC) 123 % of control | dose: 1.25 mg/kg/injection, schedule: Q04DX003 (ip), vehicle: saline 122 % of control | dose: 5.0 mg/kg/injection, schedule: Q01DX009 (ip), vehicle: Klucel (hydroxypropylcellulose) (HPC) 93 % of control | dose: 20.0 mg/kg/injection, schedule: Q01DX009 (ip), vehicle: saline 102 % of control

CCOC(=O)C(Cc1ccccc1)(NC=O)C(=O)OCC
inactive: [1] 94 % of control | [3] 98 % of control | [5] 96 % of control

N#Cc1csc(CCNC(=O)c2ccccc2)n1
inactive: dose: 100.0 mg/kg/injection, schedule: Q01DX001 (ip), vehicle: saline with Tween-80 105 % of control | [2] 100 % of control | dose: 200.0 mg/kg/injection, schedule: Q01DX001 (ip), vehicle: saline with Tween-80 104 % of control | [4] 93 % of control | dose: 400.0 mg/kg/injection, schedule: Q01DX001 (ip), vehicle: saline with Tween-80 93 % of control | [6] 94 % of control

CCCCn1c(N)cc(=O)[nH]c1=S
inactive: dose: 50.0 mg/kg/injection, schedule: Q01DX001 (ip), vehicle: saline 100 % of control | dose: 100.0 mg/kg/injection, schedule: Q01DX001 (ip), vehicle: saline 93 % of control | dose: 200.0 mg/kg/injection, schedule: Q01DX001 (ip), vehicle: saline 106 % of control | dose: 400.0 mg/kg/injection, schedule: Q01DX001 (ip), vehicle: saline 100 % of control

CC(C)CCCCCc1ccc(OCCOc2ccc(C(=O)Nc3ccc(S(=O)(=O)F)cc3[N+](=O)[O-])cc2)cc1
inactive: [7] 100 % of control | [9] 94 % of control | [11] 94 % of control

COC1=C(NCc2ccccc2)C(=O)C(OC)=C(NCc2ccccc2)C1=O
inactive: dose: 50.0 mg/kg/injection, schedule: Q01DX001 (ip), vehicle: carboxymethylcellulose (CMC) 113 % of control | dose: 100.0 mg/kg/injection, schedule: Q01DX001 (ip), vehicle: carboxymethylcellulose (CMC) 101 % of control | [1] 92 % of control | [8] 90 % of control | dose: 200.0 mg/kg/injection, schedule: Q01DX001 (ip), vehicle: carboxymethylcellulose (CMC) 107 % of control | [3] 95 % of control | [10] 93 % of control | dose: 400.0 mg/kg/injection, schedule: Q01DX001 (ip), vehicle: carboxymethylcellulose (CMC) 107 % of control | [5] 92 % of control | [12] 97 % of control

NC(CO)C(O)c1ccc([N+](=O)[O-])cc1 (centres undefined)
inactive: [1] 101 % of control | [8] 91 % of control | [3] 101 % of control | [10] 100 % of control | [5] 101 % of control | [12] 98 % of control

CCCOc1cc(C)c2cc(Cc3cc(C)c4nc(OCCC)cc(C)c4c3)cc(C)c2n1
inactive: dose: 100.0 mg/kg/injection, schedule: Q01DX001 (ip), vehicle: other 87 % of control | dose: 200.0 mg/kg/injection, schedule: Q01DX001 (ip), vehicle: other 95 % of control | dose: 400.0 mg/kg/injection, schedule: Q01DX001 (ip), vehicle: other 101 % of control

N#Cc1[nH]cnc1[N+]#N
inactive: dose: 3.0 mg/kg/injection, schedule: Q01DX009 (ip), vehicle: saline with Tween-80 103 % of control | dose: 3.0 mg/kg/injection, schedule: Q04DX003 (ip), vehicle: other 108 % of control | dose: 6.0 mg/kg/injection, schedule: Q01DX009 (ip), vehicle: saline with Tween-80 105 % of control | dose: 6.0 mg/kg/injection, schedule: Q04DX003 (ip), vehicle: other 103 % of control | dose: 12.0 mg/kg/injection, schedule: Q01DX009 (ip), vehicle: saline with Tween-80 91 % of control | dose: 12.0 mg/kg/injection, schedule: Q04DX003 (ip), vehicle: other 108 % of control | dose: 12.5 mg/kg/injection, schedule: Q01DX001 (ip), vehicle: other 94 % of control
